The structures appear in SMILES notation.

The values that follow come from publication PMC4357715, “The beta hairpin structure within ribosomal protein S5 mediates interplay between domains II and IV and regulates HCV IRES function” (Nucleic Acids Research, 2015).

One assay deals with HCV IRES. In words: Ribosomal assembly assay on HCV IRES in RRL. The class given is biochemical, Hepatitis C Virus. The conditions noted are these: wild-type 32P-labelled HCV IRES RNA; 2 mM GMP-PNP or 20 mM cycloheximide. Here is the method:
^32P-labelled wild type or mutant HCV IRES RNA (3 × 10^5 c.p.m.) was added to 25 μl of translation reaction containing 17.5 μl of rabbit reticulocyte lysate (RRL). The reactions were incubated at 30°C for 15 min and diluted to 150 μl with ice cold gradient buffer (20 mM Tris–HCl pH 7.5, 100 mM KCl, 3 mM MgCl2, 1 mM Dithiothreitol (DTT)) and overlaid in 5–30% sucrose gradient. The ribosomal complexes were separated by ultracentrifuge for 3 h at 30 000 rpm at 4°C in TH-641 rotor (Thermo Scientific). Fractions (330 μl) were manually collected from the top of the tube and radioactivity was measured in a liquid scintillation counter. To validate the peaks, in vitro translation was performed in presence of 2 mM 5′-guanylyl imidodiphosphate (GMP-PNP) or 20 mM of cycloheximide and peaks were resolved on sucrose gradient.
We confirmed the 48S and 80S peaks in the ribosome assembly profile by using GMPPNP and cycloheximide respectively. As expected GMPPNP and cycloheximide stalled translation at the 48S and 80S stages, respectively (Figure 3A).
Figure 3. Ribosome assembly on wild type and mutant HCV IRES. (A) Ribosome assembly on wild-type ^32P-labelled HCV IRES RNA in the presence of either cycloheximide or GMPPNP. […] Different fractions were collected and the radioactivity associated with each fraction was measured. […]

In assay [1] the test system is global protein synthesis in Huh7 cells. As to the kind of experiment: 35S-Methionine metabolic labelling. The class given is cell-based. The conditions noted are these: cycloheximide 100 μg/ml, positive control. Here is the method: Forty-eight hours after transfection, medium was replaced with serum free DMEM lacking methionine and cysteine (Sigma) and incubated for 1 h. Then 100 μci of ^35S in vivo pro-twin label mix (BRIT) was added to each well and cells were labelled for 30 min. Cells treated with 100 μg/ml concentration of cycloheximide were taken as positive control for global translation shut down. After labelling the cells, media was removed and the cells were washed three times with ice-cold phosphate buffered saline (PBS). Cells were harvested and lysed in the 100 μl of RIPA buffer lacking SDS (50 mM Tris–HCl pH 7.4, 150 mM NaCl, 1 mM EDTA, 1% NP-40, 0.25% sodiumdeoxycholate) containing protease inhibitors (complete EDTA-free protease inhibitor, Roche). The protein concentration of the lysate was then estimated by Bradford assay. Twenty-five micrograms of protein from each sample was mixed with 0.1 mg BSA and ice-cold TCA was added to a final concentration of 20%. The samples were incubated for 30 min on ice and loaded on prewet (with 20% TCA) glass microfibre filters (Whatmann). The filters were washed with 1 ml of 20% TCA twice and once with 1 ml of 100% ethanol. The filters were then incubated overnight with 4 ml of scintillation liquid and counts were taken.
Figure 6. Role of RPS5 in HCV translation and replication. […] Huh7 cells were transfected with siNSP RNA or siRPS5 RNA. […]

On to `Nc1nc2c(ncn2[C@@H]2O[C@H](COP(=O)(O)OP(=O)(O)NP(=O)(O)O)[C@@H](O)[C@H]2O)c(=O)[nH]1` [GMPPNP, 5′-guanylyl imidodiphosphate], for which the “stage at which translation is stalled” value in the assay on HCV IRES worked out at 48S.
Consider `C[C@@H]1C[C@@H]([C@H](O)CC2CC(=O)NC(=O)C2)C(=O)[C@@H](C)C1` [cycloheximide], for which the “reduction of protein levels (35S-methionine incorporation)” value in assay [1] was approximately 75%. Moreover, the “stage at which translation is stalled” value in the assay with HCV IRES is 80S.
